According to US10111871B2, “Nanoparticle drug delivery system and method of treating cancer and neurotrauma” (Northeastern University, priority 2013, dated 2018):

Key:
[1] = system: LNCaP cells; test: Nuclear PARP cleavage assay by confocal microscopy; format: cell-based, human
Text: (§1) Irradiation for in vitro studies: Radiation was delivered using the Small Animal Radiation Research Platform (SARRP) at DFCI, a gantry mounted x-ray tube and flat panel imager capable of fixed field irradiation, rotation therapy and cone-beam CT (CBCT) imaging. […] Here the radiation doses were optimized to 2 Gy (5.6 Gy/min for 22 sec) and 4 Gy (5.5 Gy/min for 44 sec) to irradiate the cells, which were pretreated with Olaparib/NanoOlaparib for 24 hrs.
(§2) Nuclear localization and early DNA damage determination: To assess the early DNA Damage and PARP inhibition pathway damage, including PARP, PARylation, PARP cleavage and yH2AX in the cell lines to various treatment conditions, the prostate cancer cell lines were seeded at 100,000 cells, exposed to 20 μM Olaparib/NanoOlaparib, with and without radiation for both immunoflorescence (confocal) and western blotting assays. PARP-1 is a 116 kDa nuclear protein which is strongly activated by DNA strand breaks. During apoptosis, proteins such as caspase-3 and -7, cleave the PARP to yield an 85 kDa and a 25 kDa fragment. The nuclear localization and extent of apoptosis was determined using nuclear PARP cleavage assay and western blotting was used to determine the relative cellular concentrations of PARP, PAR, and yH2AX for various treatments on all the cell lines. Briefly, 105 cells/well were seeded in a 6 well plate on sterile coverslips for 24 hours before adding the drugs. The cells were incubated with the drugs for either 4 hr s after which they were irradiated. The cells thus treated were incubated at 37° C. for 1 hour before fixing them for further analysis.
(§3) Nuclear PARP Cleavage assay using confocal microscopy: The cells were fixed with 1% formalin and kept at 37° C. for 15 min. The coverslips were given three PBS washings (3 min each) until the cells were free of fixing agent. The cells were rehydrated using PBS with 0.5% tween 80 for 30 min, washed with buffer and incubated with Anti-PARP Cleavage Site (214/215) specific antibody, FITC Conjugate (Life technologies, NY, Cat #44-699) for 1 hour. This antibody specifically recognizes the 85 kDa fragment of cleaved PARP and can be used as a marker for detecting apoptotic cells. The coverslips were washed twice and were mounted onto the glass slide using and the edges were sealed using nail polish. The images were taken using an Olympus FV1000, multi-photon confocal microscope (Olympus America, Inc., Central Valley, Calif.). The excitation filters used for imaging cleaved PARP (FITC) and DAPI were Ex-488, 405 respectively. The emission filters were set at 530, 458 nm for FITC and DAPI respectively. All the images were captured with a 60× objective. […] Statistical significance was analyzed using two way ANOVA and Dunnet's multiple comparison tests in Graph Pad Prism.

[2] = system: PC3 cells; test: Nuclear PARP cleavage assay by confocal microscopy; format: cell-based, human; conditions: PC3, DAPI
Text: as §1, §2, §3

[3] = system: FKO1 cells; test: Nuclear PARP cleavage assay by confocal microscopy; format: cell-based, mouse; conditions: FKO1, DAPI
Text: as §1
Nuclear localization and early DNA damage determination: To assess the early DNA Damage and PARP inhibition pathway damage, including PARP, PARylation, PARP cleavage and yH2AX in the cell lines to various treatment conditions, the prostate cancer cell lines were seeded at 100,000 cells, exposed to 20 μM Olaparib/NanoOlaparib, with and without radiation for both immunoflorescence (confocal) and western blotting assays. […] The nuclear localization and extent of apoptosis was determined using nuclear PARP cleavage assay and western blotting was used to determine the relative cellular concentrations of PARP, PAR, and yH2AX for various treatments on all the cell lines. […]
Nuclear PARP Cleavage assay using confocal microscopy: The cells were fixed with 1% formalin and kept at 37° C. for 15 min. […] Statistical significance was analyzed using two way ANOVA and Dunnet's multiple comparison tests in Graph Pad Prism.

[4] = system: FKO1; test: Delayed viability assay after radiosensitization (modified clonogenic assay); format: cell-based, mouse
Procedure: (§4) In vitro characterization of NanoOlaparib: For in vitro studies we used PTEN deficient human prostate cancer cell lines PC3 (ATCC), LNCaP (ATCC) and mouse cell line FKO1. […] Briefly, a complete media was formulated by adding 10% Fetal Bovine Serum from HyClone (FBS) to F12-k (PC3), RPMI (LNCaP) and DMEM supplemented with growth factors such as Bovine Pituitary Extract, (Life Technologies cat #: 13028014), final conc. 25ug/ml, Insulin, (Sigma Aldrich Cat#:16634-50 mg), final conc. 5ug/ml, EGF (Life Technologies Cat#:PHG0311), final conc 6 ng/ml (FKO1). The FKO1 cells were grown on collagen-coated plates (VWR Cat#: 47743-656). CellTiter-Glo® luminescent cell viability reagent was ordered from Promega, CA Cat # G7570. Clonogenic assay kit was bought from BioPioneer, CA, Cat # CODE: CA-001.
as §1
(§5) Delayed viability assay after radiosensitization: Based on several studies, we modified the general clonogenic assay protocol to determine the long term effects of radio-sensitization with olaparib and NanoOlaparib (42, 43). The percent cell viability was determined using the modified clonogenic assay at 2 Gy and 4 Gy doses. Irradiation was carried out in prostate cancer cell lines, LNCaP PC3 and FKO1 as described above. […] The cell density was determined using automated cell counter and 10,000 and 20,000 cells from each treatment group was calculated and seeded in fresh 6 well plates. […] The stain was then dissolved in acetic acid to quantify the effect of Olaparib and NanoOlaparib treatments for all the cell lines.

[5] = system: PC3; test: Synergism with irradiation, combination index by CalcuSyn; format: cell-based, human; conditions: PC3, 20 μM with irradiation
Procedure: Determination of Synergism using CalcuSyn: The fraction of cells affected (Fa) in response to Olaparib and Nanoolaparib treatment was determined as discussed in above sections. The fraction of cells affected by irradiation alone and the combination therapy was determined by the delayed cell viability assay and these values were utilized to perform synergyism analysis. A non-constant ratio combination design as formulated by CalcuSyn (Biosoft) based on the Chou-Talalay isobologram equation was used to calculate the Combination index (44). All the cells were exposed to 20 μM Olaparib or NanoOlaparib with increasing doses of Irradiation. The CI values were generated from isobolograms. All assays were performed in duplicates. Bars represent the Combination index (CI) of Olaparib and Nanoolaparib on LNCaP, PC3 and FKO1 in combinations with irradiation. The CI values generated for all the treatment groups are reported in the bar graphs are derived from duplicate experiments. The extent of synergism is postulated as indicated by the Chou-Talalay method.

[6] = HPLC analysis of encapsulated Olaparib (loading efficiency); format: physicochemical; conditions: across the batches
Procedure: HPLC analysis: The concentration of Olaparib encapsulated was determined using HPLC. The mobile phase was optimized to be methanol: water (64:36) run on a reverse phase C18 column (SUPELCO™), and the Olaparib was detected at 207 nm. All the doses used in the following studies were derived from the standard curve obtained using a working range of serially diluted Olaparib solutions in mobile phases as described above. The loading efficiency across the batches was around 80-90%.

[7] = system: PC3; test: Delayed viability assay after radiosensitization (modified clonogenic assay); format: cell-based, human
Procedure: as §4, with “Clonogenic assay kit was bought from BioPioneer, CA, Cat # CODE: CA-001.” left out
as §5, with “doses.” for “doses. Irradiation was carried out in prostate cancer cell lines, LNCaP PC3 and FKO1 as described above.”

O=C(c1cc(Cc2n[nH]c(=O)c3ccccc23)ccc1F)N1CCN(C(=O)C2CC2)CC1 [Olaparib, 4-(3-(1-(cyclopropanecarbonyl)piperazine-4-carbonyl)-4-fluorobenzyl)phthalazin-1(2H)-one]
location of cleaved PARP ([1]; 1 hr post irradiation): predominantly found in the perinuclear region
increase in nuclear area ([1]; DAPI, 20 μM): 3 fold
increase in cleaved PARP upon monotherapy ([1]; no irradiation, 20 μM): 20 fold
change in nuclear size [2]: No significant change
change in nuclear size [3]: No significant change
cell kill ([4]; FKO1, 20 uM combined with 4 Gy radiation): 82%
cell death ([4]; FKO1, 20 uM with 2 Gy): 68%
cell death, monotherapy ([4]; FKO1, 20 uM, no irradiation): 53%
combinatorial effect of drug and irradiation (CI) [5]: additive effect
loading efficiency [6]: 80-90%
cell death ([7]; PC3, 20 uM with 2 Gy): 80%
cell death, monotherapy ([7]; PC3, 20 uM, no irradiation): 78%
